Assay results from patent publication US20240156800A1, “EP300 DEGRADER AND USES THEREOF IN NEUROBLASTOMA” (DANA-FARBER CANCER INSTITUTE, INC., priority 2021, published 2024).

What was measured:
His-tagged CRBN = His-tagged CRBN (Homo sapiens, UniProt Q96SW2); assay: AlphaLISA assay with biotinylated pomalidomide and His-tagged CRBN; type: binding; conditions: competition with biotinylated pomalidomide
Procedure: To determine whether JQAD1 interacts with the E3 ligase receptor CRBN, the AlphaLISA® platform was used to perform AlphaLISA® fluorescent assays using biotinylated pomalidomide bound to beads and His-tagged CRBN (Yasgar et al. Methods Mol. Biol. 1439:77-98 (2016)). […] Next, biotinylated JQAD1 (Biotin-JQAD1, Scheme 2) was synthesized and incubated with Kelly cell lysates, followed by streptavidin-based purification. […] PROTAC®s may acquire preferential specificity for one of two possible target enzymes due to restricted three-dimensional interactions, as noted in Burslem and Crews, Cell 181:102-14 (2020).
Assays were performed with minimal modifications from the manufacturer's protocol (PerkinElmer®, USA). Briefly, a 2× solution of components with final concentrations of CRBN-DDB1 at 50 nM, Ni-coated Acceptor Beads at 20 μg/ml, and 15 nM biotinylated-pomalidomide were added in […] to 384-well plates (AlphaPlate-384, PerkinElmer®, USA). 100 nL of compound in DMSO from stock plates were added by pin transfer using a Janus Workstation (PerkinElmer®, USA). Streptavidin-coated donor beads (20 μg/ml final) were added to the solution, followed by incubation at room temperature for 1 hour, and reading on an Envision 2104 (PerkinElmer®, USA), by the manufacturer's protocol.

H3K27ac = H3K27ac ChIP-seq with Drosophila spike-in (ChIP-RX) in Kelly cells; type: cell-based, human; conditions: 500 nM
Procedure: ChIP-seq was performed as previously described for cell lines (Durbin et al. Nat. Genet. 50:1240-6 (2018)). The following antibodies were used for ChIP: EP300 (Abcam, ab10485), CBP (#7389, Cell Signaling Technology®), TFAP2β (#2509, Cell Signaling Technology®), ASCL1 (sc-374104, Santa Cruz Biotechnology) and H3K27ac (Abcam ab4729). For each ChIP, 10 μg of antibody was added to 3 ml of sonicated nuclear extract. Illumina® sequencing, library construction, and ChIP-seq analysis methods were performed as described in Mansour et al. Science 346, 1373-7 (2014) and Sanda et al. Cancer Cell 22:209-21 (2012). Remaining ChIP-seq and assay for transposase-accessible chromatin (ATAC)-sequencing data were extracted from previously published datasets (GSE120074, GSE94822, GSE65664) available through the GEO portal. For experiments involving analysis of quantitative changes in H3K27ac, pellets of neuroblastoma cells were externally spiked in with similarly fixed and processed S2 cells at 1:10 ratio, prior to sonication.
ChIP-RX reads from Kelly cells treated with 500 nM JQAD1 were aligned in multiple steps. Reads were aligned to the dm6 revision of the D. melanogaster reference genome with -k 1 —chunkmbs 256—best to identify spiked-in DNA. Counts of fly reads were determined by counting unique read names in the aligned read file. Remaining non-fly reads were aligned to the hg19 revision of the human reference genome with parameters -k 2 -m 2 -chunkmbs 256 -best -175. Visualization files were constructed using macs 1.4 with parameters -w -S -space=50 -nomodel -shiftsize=200 to generate wiggle files, which were subsequently normalized by the millions of fly-mapped reads in the corresponding sample.
H3K27ac ChIP-RX read coverage of stitched enhancers was quantified using bamToGFF with parameter -t TRUE and divided by the millions of mapped reads, from which read-per-million values from the corresponding input experiment was subtracted. These values were used to create fold-changes during the treatment time-course.

[1] = target: T1, EP300, CRBN and CBP in Kelly cell lysates (Homo sapiens, UniProt Q09472+Q96SW2); assay: Biotin-JQAD1 pulldown from Kelly cell lysates (streptavidin purification, western blotting); type: binding; conditions: Kelly cell lysates co-treated with excess pomalidomide
T1 construct: added to 500 μg of whole Kelly cell lysate; endogenous in cells; host or cells: Kelly neuroblastoma cells (whole cell lysate)
Procedure: Biotin-JQAD1, synthesized below, was added to 500 μg of whole Kelly cell lysate prepared in immunoprecipitation (IP) lysis buffer (Pierce™ Biotechnology), and incubated for 16 h at 4° C. with end-over-end mixing. One hundred μL of high-capacity streptavidin agarose resin (Pierce™ Biotechnology) was packed into a 1.5 mL Eppendorf tube®, washed three times with cold PBS, prior to addition of cell lysate. Lysate was incubated at room temperature for 10 minutes prior to centrifugation and washing, followed by elution in NuPAGE™ LDS sample buffer with reducing agent (Thermo-Fisher Scientific). Samples were processed by sodium dodecyl sulphate-polyacrylamide gel electrophoresis (SDS-PAGE) as above and blotted using anti-EP300, anti-CRBN, or anti-CBP antibodies.

CBP = target: T2, CBP (Mus musculus, UniProt P45481); assay: Immunohistochemistry of CBP in liver of Crbn ILE391VAL knockin mice; type: in vivo; conditions: 40 mg/Kg IP daily, 14 days
T2 construct: from tissue; host or cells: liver of Balb/c Crbn^ILE391VAL knock-in mice
T2 sequence (P45481 whole entry): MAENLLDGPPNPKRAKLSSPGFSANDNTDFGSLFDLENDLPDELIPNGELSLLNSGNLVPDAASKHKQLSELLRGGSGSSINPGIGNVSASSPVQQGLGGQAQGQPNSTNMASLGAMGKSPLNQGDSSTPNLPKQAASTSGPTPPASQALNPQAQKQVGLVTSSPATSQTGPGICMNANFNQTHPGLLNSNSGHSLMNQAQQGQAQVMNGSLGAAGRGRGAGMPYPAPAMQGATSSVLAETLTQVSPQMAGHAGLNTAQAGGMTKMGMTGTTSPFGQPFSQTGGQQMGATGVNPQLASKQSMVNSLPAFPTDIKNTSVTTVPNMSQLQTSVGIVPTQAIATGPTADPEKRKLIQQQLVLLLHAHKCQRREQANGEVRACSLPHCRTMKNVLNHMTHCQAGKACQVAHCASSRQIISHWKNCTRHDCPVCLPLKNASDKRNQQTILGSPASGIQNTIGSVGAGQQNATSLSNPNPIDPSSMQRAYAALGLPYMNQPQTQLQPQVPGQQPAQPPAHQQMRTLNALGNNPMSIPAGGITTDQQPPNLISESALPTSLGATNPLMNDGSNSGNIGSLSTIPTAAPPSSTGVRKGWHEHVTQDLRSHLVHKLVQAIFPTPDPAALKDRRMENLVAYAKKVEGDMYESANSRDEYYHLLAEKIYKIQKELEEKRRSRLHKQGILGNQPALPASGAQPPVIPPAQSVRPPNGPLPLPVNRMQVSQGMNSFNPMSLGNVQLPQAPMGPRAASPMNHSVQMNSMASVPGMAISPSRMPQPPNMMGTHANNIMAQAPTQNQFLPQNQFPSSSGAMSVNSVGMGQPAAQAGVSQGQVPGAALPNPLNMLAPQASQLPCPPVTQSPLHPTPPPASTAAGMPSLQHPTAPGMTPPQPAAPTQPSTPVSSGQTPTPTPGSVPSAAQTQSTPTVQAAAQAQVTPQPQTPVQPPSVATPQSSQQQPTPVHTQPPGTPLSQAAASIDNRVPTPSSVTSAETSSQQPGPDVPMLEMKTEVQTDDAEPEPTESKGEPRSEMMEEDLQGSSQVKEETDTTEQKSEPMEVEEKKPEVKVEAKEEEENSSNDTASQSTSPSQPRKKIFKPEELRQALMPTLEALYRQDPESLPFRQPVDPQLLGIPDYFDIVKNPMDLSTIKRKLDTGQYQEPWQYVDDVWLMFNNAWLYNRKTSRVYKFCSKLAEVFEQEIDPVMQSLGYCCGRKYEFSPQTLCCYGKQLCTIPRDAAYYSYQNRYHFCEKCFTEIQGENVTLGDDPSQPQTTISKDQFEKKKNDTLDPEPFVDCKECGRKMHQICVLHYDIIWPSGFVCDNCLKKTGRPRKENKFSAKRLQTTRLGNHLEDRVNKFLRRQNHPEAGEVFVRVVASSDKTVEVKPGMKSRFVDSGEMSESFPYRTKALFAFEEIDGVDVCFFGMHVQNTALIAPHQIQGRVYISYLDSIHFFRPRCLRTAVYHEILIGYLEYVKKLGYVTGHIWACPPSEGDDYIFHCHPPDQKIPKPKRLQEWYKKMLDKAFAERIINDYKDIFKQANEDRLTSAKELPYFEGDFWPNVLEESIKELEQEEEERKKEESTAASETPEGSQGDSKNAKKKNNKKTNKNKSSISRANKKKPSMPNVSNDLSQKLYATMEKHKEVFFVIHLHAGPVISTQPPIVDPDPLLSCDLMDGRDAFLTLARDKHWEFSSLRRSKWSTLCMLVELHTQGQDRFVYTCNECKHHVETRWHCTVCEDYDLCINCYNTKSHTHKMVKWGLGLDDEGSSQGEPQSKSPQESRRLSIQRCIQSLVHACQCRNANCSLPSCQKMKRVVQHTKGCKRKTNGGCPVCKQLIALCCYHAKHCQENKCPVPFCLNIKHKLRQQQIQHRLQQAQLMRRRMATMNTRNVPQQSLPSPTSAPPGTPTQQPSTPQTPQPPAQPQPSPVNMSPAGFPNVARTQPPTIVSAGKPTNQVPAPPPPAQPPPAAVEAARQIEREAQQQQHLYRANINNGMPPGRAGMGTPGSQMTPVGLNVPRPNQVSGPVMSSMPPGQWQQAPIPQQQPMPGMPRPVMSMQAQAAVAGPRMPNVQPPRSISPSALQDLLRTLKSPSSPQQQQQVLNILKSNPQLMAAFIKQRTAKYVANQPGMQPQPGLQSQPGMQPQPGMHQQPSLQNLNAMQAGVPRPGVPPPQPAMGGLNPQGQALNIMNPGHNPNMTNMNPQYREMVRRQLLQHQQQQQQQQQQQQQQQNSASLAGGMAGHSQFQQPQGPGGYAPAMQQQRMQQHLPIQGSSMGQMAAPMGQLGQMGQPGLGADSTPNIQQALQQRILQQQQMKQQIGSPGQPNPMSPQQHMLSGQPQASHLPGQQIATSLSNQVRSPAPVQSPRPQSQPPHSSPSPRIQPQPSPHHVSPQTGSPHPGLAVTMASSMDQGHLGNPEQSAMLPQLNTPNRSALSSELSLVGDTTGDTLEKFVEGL
Procedure: For toxicity studies, four female CD1 mice (Charles River Laboratories) were injected intraperitoneally (IP) with single doses of 10 mg/Kg (R,S)-JQAD1 solubilized in 10% hydroxypropyl β-cyclodextrin (Sigma-Aldrich®) in sterile water. Following injection, blood concentration of (R,S)-JQAD1 was measured by serial measurements of animal serum at time points out to 24 h, by liquid chromatography with tandem mass spectrometry (LC-MS/MS) analysis. Pharmacokinetics were performed at ChemPartner in Shanghai, China, using LC-MS/MS method and pharmacokinetics parameters (Tmax, Cmax, T1/2, AUC, etc.) calculated with WinNonlin® V 6.2 statistics software (Pharsight Corporation) using a noncompartmental model. For maximally tolerated dose (MTD) testing, six female CD1 mice were treated with daily IP doses of (R,S)-JQAD1 at 10, 20, or 40 mg/kg. Animals were monitored for animal weight, grooming and behavior daily without noted effects. […] Animal weights, behavior and grooming were monitored daily, for a total of 21 days. […] Blood samples were obtained by retro-orbital puncture and blood analyzed at the Small Animal Imaging Facility at Beth Israel Deaconess Medical Center (Boston, MA), on a Hemavet® 9500FS (Drew Scientific) for blood counts, creatinine, AST, ALT, ALP, GGTP, and BUN measurements. […]

Sequence of His-tagged CRBN (Q96SW2 whole entry): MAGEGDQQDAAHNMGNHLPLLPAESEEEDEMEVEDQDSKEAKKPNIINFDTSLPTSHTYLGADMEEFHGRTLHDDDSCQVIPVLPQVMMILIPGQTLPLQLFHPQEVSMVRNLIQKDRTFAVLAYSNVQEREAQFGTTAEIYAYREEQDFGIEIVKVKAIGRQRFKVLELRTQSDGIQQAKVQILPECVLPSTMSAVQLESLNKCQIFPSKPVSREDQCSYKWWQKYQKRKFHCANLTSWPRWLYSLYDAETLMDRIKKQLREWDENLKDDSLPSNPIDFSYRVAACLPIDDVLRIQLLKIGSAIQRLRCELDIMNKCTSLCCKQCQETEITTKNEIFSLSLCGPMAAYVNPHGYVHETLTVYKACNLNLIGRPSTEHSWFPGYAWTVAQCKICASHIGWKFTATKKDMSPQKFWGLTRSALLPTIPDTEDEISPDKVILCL
Sequence of His-tagged CRBN (Q16531 whole entry partner): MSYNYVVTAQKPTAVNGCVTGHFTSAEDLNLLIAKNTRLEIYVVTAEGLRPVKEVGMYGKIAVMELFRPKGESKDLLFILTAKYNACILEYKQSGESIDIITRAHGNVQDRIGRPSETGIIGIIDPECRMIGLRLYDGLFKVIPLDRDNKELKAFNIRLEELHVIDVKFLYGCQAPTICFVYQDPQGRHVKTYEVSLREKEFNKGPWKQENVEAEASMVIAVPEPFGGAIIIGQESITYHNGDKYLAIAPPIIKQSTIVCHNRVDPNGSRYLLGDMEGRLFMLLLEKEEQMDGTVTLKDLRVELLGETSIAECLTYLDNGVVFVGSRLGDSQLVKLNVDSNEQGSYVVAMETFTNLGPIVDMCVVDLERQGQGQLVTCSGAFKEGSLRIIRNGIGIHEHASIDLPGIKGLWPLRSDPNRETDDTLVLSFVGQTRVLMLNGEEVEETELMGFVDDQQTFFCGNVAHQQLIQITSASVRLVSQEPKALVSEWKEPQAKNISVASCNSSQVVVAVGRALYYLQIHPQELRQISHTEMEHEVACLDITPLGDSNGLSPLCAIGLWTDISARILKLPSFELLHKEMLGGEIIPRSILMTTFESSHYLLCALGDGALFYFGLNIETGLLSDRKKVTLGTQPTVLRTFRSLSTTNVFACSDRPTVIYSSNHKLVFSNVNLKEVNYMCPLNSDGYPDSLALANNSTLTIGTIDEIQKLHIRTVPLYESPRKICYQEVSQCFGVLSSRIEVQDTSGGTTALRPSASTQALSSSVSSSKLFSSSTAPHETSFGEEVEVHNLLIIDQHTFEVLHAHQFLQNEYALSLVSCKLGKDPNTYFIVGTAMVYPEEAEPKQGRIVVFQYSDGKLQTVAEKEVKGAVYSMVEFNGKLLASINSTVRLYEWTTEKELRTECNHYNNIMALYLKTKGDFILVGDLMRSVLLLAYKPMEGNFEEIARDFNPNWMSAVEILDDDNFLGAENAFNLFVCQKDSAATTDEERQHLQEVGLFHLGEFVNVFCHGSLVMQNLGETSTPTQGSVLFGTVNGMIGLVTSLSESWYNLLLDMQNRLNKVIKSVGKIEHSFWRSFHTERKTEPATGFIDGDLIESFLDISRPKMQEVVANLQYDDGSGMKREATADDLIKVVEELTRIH

Compound: C[C@H](N(Cc1ccc(F)cc1)C(=O)CN1C(=O)O[C@@]2(CCc3cc(NC(=O)CCCCCCCCCCCNc4ccc5c(c4)C(=O)N(C4CCC(=O)NC4=O)C5=O)ccc32)C1=O)C(F)(F)F (stereo partly drawn) [JQAD1, 12-((2-(2,6-dioxopiperidin-3-yl)-1,3-dioxoisoindolin-5-yl)amino)-N-((R)-3′-(2-((4-fluorobenzyl)((S)-1,1,1-trifluoropropan-2-yl)amino)-2-oxoethyl)-2′,4′-dioxo-2,3-dihydrospiro[indene-1,5′-oxazolidin]-5-yl)dodecanamide]
- interaction with CRBN (His-tagged CRBN): efficiently interacted with CRBN
- H3K27ac signal at 6 h versus 0 h (H3K27ac; 6 h): no consistent change in acetylation
- H3K27ac signal genome-wide at 24 h (H3K27ac; 24 h): general loss of H3K27ac signal genome-wide, which was most pronounced at densely acetylated super-enhancers
- global suppression of all enhancers (H3K27ac marked sites) (H3K27ac; 24 h versus untreated): approximately 2 fold
- effect of excess pomalidomide on the interaction [1]: partial loss of the interaction between JQAD1, CRBN, and EP300
- CBP in liver (CBP): CBP remained detectable by immunohistochemistry
